Assay results published in ChEMBL document CHEMBL1142923, “Novel chiral isoxazole derivatives: synthesis and pharmacological characterization at human beta-adrenergic receptor subtypes” (Bioorg Med Chem, 2007).
pKi: −log10 of the molar value.

Legend:
[1] = target: T1, Beta-3 adrenergic receptor (Homo sapiens, UniProt P13945); experiment: Efficacy at human adrenergic beta 3 receptor transfected in CHO cells assessed as stimulation of adenylyl cyclase at 100 uM relative to isoproterenol; assay type: functional, cell-based
Target sequence in this assay (P13945 whole entry, looked up): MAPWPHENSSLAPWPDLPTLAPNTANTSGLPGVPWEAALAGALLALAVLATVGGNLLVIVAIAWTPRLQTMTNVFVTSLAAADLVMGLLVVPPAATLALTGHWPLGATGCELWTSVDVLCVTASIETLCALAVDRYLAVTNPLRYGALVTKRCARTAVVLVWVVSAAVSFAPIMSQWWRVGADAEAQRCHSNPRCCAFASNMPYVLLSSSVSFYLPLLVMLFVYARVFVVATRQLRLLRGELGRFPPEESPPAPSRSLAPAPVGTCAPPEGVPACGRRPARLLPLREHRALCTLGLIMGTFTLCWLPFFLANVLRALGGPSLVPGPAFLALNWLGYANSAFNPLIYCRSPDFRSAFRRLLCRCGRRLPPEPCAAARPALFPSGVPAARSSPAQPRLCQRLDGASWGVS

[2] = target: Beta-1 adrenergic receptor (Homo sapiens, UniProt P08588); experiment: Displacement of [125I]CYP from human adrenergic beta 1 receptor transfected in CHO cells in presence of 100 uM GTP; assay type: cell-based
[3] = target: Beta-2 adrenergic receptor (Homo sapiens, UniProt P07550); experiment: Displacement of [125I]CYP from human adrenergic beta 2 receptor transfected in CHO cells in presence of 100 uM GTP; assay type: cell-based
[4] = target: T1, Beta-3 adrenergic receptor; experiment: Displacement of [125I]CYP from human adrenergic beta 3 receptor transfected in CHO cells in presence of 100 uM GTP; assay type: cell-based
Target sequence in this assay (P13945 whole entry): as the sequence (P13945 whole entry, looked up) above

Chain of Beta-2 adrenergic receptor (P07550 whole entry): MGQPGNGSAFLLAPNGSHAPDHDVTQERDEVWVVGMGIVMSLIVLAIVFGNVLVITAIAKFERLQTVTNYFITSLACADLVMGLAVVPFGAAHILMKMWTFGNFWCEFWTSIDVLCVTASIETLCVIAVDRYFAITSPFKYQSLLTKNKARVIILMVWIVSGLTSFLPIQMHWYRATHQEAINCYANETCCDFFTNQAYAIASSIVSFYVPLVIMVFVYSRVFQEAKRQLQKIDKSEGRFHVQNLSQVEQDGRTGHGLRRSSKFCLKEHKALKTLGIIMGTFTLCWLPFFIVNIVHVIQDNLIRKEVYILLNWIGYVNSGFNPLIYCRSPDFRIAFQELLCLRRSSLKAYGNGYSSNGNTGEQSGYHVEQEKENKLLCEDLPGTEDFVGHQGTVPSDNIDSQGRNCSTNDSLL
Chain of Beta-1 adrenergic receptor (P08588 whole entry): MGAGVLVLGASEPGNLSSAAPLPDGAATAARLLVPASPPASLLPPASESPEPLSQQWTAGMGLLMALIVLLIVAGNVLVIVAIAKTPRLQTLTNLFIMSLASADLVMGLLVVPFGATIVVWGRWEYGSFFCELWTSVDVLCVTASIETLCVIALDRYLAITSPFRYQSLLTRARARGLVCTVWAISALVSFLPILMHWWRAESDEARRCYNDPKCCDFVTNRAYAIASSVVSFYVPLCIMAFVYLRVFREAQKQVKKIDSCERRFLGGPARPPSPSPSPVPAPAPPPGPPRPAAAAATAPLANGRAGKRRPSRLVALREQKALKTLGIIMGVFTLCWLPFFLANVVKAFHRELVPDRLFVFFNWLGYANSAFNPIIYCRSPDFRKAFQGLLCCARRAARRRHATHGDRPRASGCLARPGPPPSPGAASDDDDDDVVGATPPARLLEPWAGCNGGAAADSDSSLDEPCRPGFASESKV

Row | Structure (SMILES) | Efficacy [1] [%] | pKi [2] | pKi [3] | pKi [4]
1 | CCCCOc1ccc(C[C@@H](C)NC[C@H](O)c2cc(Br)no2)cc1 | 51 | 7.18 | 7.81 | 5.60
2 | CCCCOc1ccc(C[C@@H](C)NC[C@@H](O)c2cc(Br)no2)cc1 | 31 | 5.67 | 6.34 | 4.97
3 | C[C@H](Cc1ccc(OCC(=O)O)cc1)NC[C@H](O)c1cccc(Cl)c1 (racemic) | – | – | 5.55 | –
4 | CCOC(=O)COc1ccc(C[C@@H](C)NC[C@@H](O)c2cc(Br)no2)cc1 | 39 | 5.95 | 7.09 | 4.66
5 | C[C@H](Cc1ccc(OCC(=O)O)cc1)NC[C@H](O)c1cc(Br)no1 | 50 | 7.21 | 7.86 | 4.66
6 | CCOC(=O)COc1ccc(C[C@@H](C)NC[C@H](O)c2cc(Br)no2)cc1 | 56 | 7.63 | 8.55 | 5.00
7 | CC(C)(C)NCC(O)c1cc(NS(C)(=O)=O)no1 (racemic) | – | < 4.00 | < 4.00 | < 4.00
8 | C[C@H](Cc1ccc(OCC(=O)O)cc1)NC[C@@H](O)c1cc(Br)no1 | 34 | 5.19 | 6.30 | < 4.30
